Values of other authors, collected in paper PMC7288168, “Synthesis and Cytotoxic Activity of Chiral Sulfonamides Based on the 2-Azabicycloalkane Skeleton” (Molecules, 2020).

Test system: D425 cells
Design: method as in von Bueren et al. [31]
Settings: known chemotherapeutics in D425 cells; ref von Bueren et al. [31]; cited from earlier work

COc1cc([C@@H]2c3cc4c(cc3[C@@H](O[C@@H]3O[C@@H]5CO[C@@H](C)O[C@H]5[C@H](O)[C@H]3O)[C@H]3COC(=O)[C@H]23)OCO4)cc(OC)c1O [etoposide]
LD50 D425: 8 µM
